Measurements reported in patent US6638948B1, “Amorphous paroxetine composition” (Pentech Pharmaceuticals, Inc., priority 1996, dated 2003).

Tests used:
[1] = Stability testing: specimen stored in a glass container with HDPE liner, opened and closed periodically, exposing it to atmospheric moisture; moisture and appearance noted; format: physicochemical
Procedure: To a reaction flask containing 100 ml of absolute ethanol was added 13.9 g of paroxetine base. The flask was shaken until a clear solution was obtained. To this paroxetine solution, 10 ml of a solution of hydrochloric acid in absolute ethanol (22% v/v) was added dropwise. As the reaction proceeded to completion, the color of the solution changed from a yellow brown to a pink brown. The product was then vacuum dried in a rotary evaporator. A foamy, amorphous solid was obtained (lot # W951027). The produced amorphous solid was subjected to an additional 2.5 days of drying in a desiccator at reduced pressure. The solid, a free-flowing powder, was tested for composition by NMR and FTIR. The findings were consistent with published spectra for paroxetine. Silver nitrate testing of the solid indicated the presence of chloride in the sample. […] Residual moisture was determined by Karl-Fisher coulometric method at 0.7%. […] X-ray powder diffraction was performed using the powder pack method. The powder patterns were obtained using a Philips PW1710 automated diffractometer, with monochromatized CuKα, (Kα1=1.54060 Å; Kα2=1.54438 Å) radiation. The diffractometer was equipped with a compensating slit and a graphite monochromator. It was calibrated to 0.02° (2θ) using the quartz peak at 26.66θ° (2θ). The minimum peak/background ratio was 0.75. This spectrum is consistent with an amorphous solid form. The halo effect is clearly seen and the intensity is small. Differential scanning calorimetry was performed on the solid at two different heating rates.
A specimen (0.5 g) was stored in a glass container with a HDPE liner for stability testing. The container was opened and closed periodically exposing the specimen to atmospheric moisture. Moisture determination was conducted at intervals of about 3 months.
A solution of paroxetine hydrochloride in absolute ethanol (3.2 g/100 ml) was prepared as described in EXAMPLE 1. The solution was charged into a spray-drying machine (Yamato Chemical Co.) using a standard nozzle (0.1 mm orifice). The inlet temperature was set at 90 degrees Celsius and the outlet temperature at 60 degrees Celsius. The sample was spray dried to a fine, off-white powder (lot # W951026). Following recovery, the material was transferred to a vacuum desiccator and dried under partial vacuum for an additional 2.5 days. The resulting solid, a free-flowing powder, was tested for composition by NMR and FTIR. The findings were consistent with published spectra for paroxetine. Silver nitrate solution addition to an aqueous solution of the powder produced a white precipitate indicative of chloride. […] Residual moisture in the product was 0.8% measured by Karl-Fisher coulometric method. A sample was analyzed by HPLC and found to be free from related substances (purity>99%). This spectrum is consistent with an amorphous form. Differential scanning calorimetry was conducted on the solid.
For stability testing a specimen (9 g) was stored in a glass container with a HDPE liner. The container was opened and closed periodically exposing the specimen to atmospheric moisture. Moisture determination was conducted at intervals of about 3 months.

[2] = reported by Barnes et al. (U.S. Pat. No. 4,721,723); cited from earlier work
[3] = 3 months storage, periodic exposure to atmospheric moisture
[4] = 6 months storage, periodic exposure to atmospheric moisture
[5] = Initial, Karl-Fisher coulometric method

SMILES | APPEARANCE [1, 3] | MOISTURE [1, 3] | APPEARANCE [1, 4] | MOISTURE [1, 4] | APPEARANCE ([1]; Initial) | MOISTURE [1, 5] | hygroscopicity [2]
Cl.Fc1ccc([C@@H]2CCNC[C@H]2COc2ccc3c(c2)OCO3)cc1 [lot #W951026, (−)-trans4R-(4′-fluorophenyl)-3S-[(3′4′-methylenedioxy-phenoxy)methyl]-piperidine] | Free-flowing | 2.1% w/w | Free-flowing | 2.2% w/w | Free-flowing | 0.8% w/w | 
Cl.Fc1ccc([C@@H]2CCNC[C@H]2COc2ccc3c(c2)OCO3)cc1 [lot #W951027, (−)-trans4R-(4′-fluorophenyl)-3S-[(3′4′-methylenedioxy-phenoxy)methyl]-piperidine] | Free-flowing | 1.8% w/w | Free-flowing | 2.1% w/w | Free-flowing | 0.7% w/w | 
Cl.Fc1ccc([C@@H]2CCNC[C@H]2COc2ccc3c(c2)OCO3)cc1 [Amorphous paroxetine hydrochloride, (−)-trans4R-(4′-fluorophenyl)-3S-[(3′4′-methylenedioxy-phenoxy)methyl]-piperidine] |  |  |  |  |  |  | undesirably hygroscopic
